Values quoted from earlier work as cited in patent US20060014839A1, “Combination of angiotensin II receptor blocker and beta-blocker for secondary prevention of myocardial infarction” (priority 2002, published 2006).

Test system: elderly patients with heart failure
Details: losartan versus captopril 50 mg t.i.d.

For `CCCCc1nc(Cl)c(CO)n1Cc1ccc(-c2ccccc2-c2nn[nH]n2)cc1` [losartan], the “tolerability and increase in serum creatinine (primary objective)” value is listed as “no significant differences” and the all-cause mortality (722 patients, 49 deaths, preliminary) is listed as “statistically significant reduction”.
